From patent US20180325151A1, “METHOD OF PRODUCING INSTANT GINSENG CHICKEN SOUP PRODUCT” (HARIM CORPORATION, priority 2017, published 2018)

Legend:
[1] = system: colon bacteria; assay: Microorganism growth inhibition: number of colon bacteria on Chromocult medium; format: cell-based; conditions: time 24 (hours); stored at 25° C.; ND = Not observed
Protocol: (§1) A chicken in instant ginseng chicken soup (product of Harim) was boiled, washed twice with cold water, and then dehydrated for 1 minute. 10 g of boiled instant ginseng chicken soup was dipped in 100 ml of solution for 30 seconds, dehydrated for 30 seconds on a strainer, held in a petri dish, and then stored at 25° C. For counting the total number of bacteria, the number of colonies resulting from culturing for 48 hours at 37° C. using a plate count agar was counted and indicated with colony forming unit (CFU)/ml. For counting the number of colon bacteria, the experiment was conducted in the same way for counting the total number of bacteria using a Chromocult (merck) medium. In this case, distilled water as a control group and (F)rhodinic acid were used.

[2] = system: total number of bacteria; assay: Microorganism growth inhibition: total number of bacteria on plate count agar; format: cell-based; conditions: boiled soup chicken dipped 30 seconds in solution, stored at 25° C.
Protocol: as §1

CC(C)=CCCC(C)CC(=O)O (centres unmarked) [F (rhodinic acid), rhodinic acid]
Number of colon bacteria [1]: no colon bacteria were detected
Total number of bacteria ([2]; time 0): 6.7 × 10^2 CFU/ml
Total number of bacteria ([2]; time 18): 10 × 10^5 CFU/ml
Total number of bacteria ([2]; time 24 (hours)): 8.9 × 10^6 CFU/ml
Total number of bacteria ([2]; time 24 (hours), listed as (F)rhodinic acid): up to 10^6 CFU/ml
